{"source": "patent US12479847B2", "about": "(DANA-FARBER CANCER INSTITUTE, INC., priority 2019, dated 2025)", "assay_in_all_cases": "KINOMEscan (ScanMAX) kinase profiling", "type_in_all_cases": "binding", "key": {"panel of 468 kinases [1]": {"molecular_target": "T1, panel of 468 kinases (Homo sapiens, UniProt Q6ZWH5)", "T1 construct": "purchased KINOMEscan (ScanMAX) service", "T1 sequence (Q6ZWH5 1-1172)": "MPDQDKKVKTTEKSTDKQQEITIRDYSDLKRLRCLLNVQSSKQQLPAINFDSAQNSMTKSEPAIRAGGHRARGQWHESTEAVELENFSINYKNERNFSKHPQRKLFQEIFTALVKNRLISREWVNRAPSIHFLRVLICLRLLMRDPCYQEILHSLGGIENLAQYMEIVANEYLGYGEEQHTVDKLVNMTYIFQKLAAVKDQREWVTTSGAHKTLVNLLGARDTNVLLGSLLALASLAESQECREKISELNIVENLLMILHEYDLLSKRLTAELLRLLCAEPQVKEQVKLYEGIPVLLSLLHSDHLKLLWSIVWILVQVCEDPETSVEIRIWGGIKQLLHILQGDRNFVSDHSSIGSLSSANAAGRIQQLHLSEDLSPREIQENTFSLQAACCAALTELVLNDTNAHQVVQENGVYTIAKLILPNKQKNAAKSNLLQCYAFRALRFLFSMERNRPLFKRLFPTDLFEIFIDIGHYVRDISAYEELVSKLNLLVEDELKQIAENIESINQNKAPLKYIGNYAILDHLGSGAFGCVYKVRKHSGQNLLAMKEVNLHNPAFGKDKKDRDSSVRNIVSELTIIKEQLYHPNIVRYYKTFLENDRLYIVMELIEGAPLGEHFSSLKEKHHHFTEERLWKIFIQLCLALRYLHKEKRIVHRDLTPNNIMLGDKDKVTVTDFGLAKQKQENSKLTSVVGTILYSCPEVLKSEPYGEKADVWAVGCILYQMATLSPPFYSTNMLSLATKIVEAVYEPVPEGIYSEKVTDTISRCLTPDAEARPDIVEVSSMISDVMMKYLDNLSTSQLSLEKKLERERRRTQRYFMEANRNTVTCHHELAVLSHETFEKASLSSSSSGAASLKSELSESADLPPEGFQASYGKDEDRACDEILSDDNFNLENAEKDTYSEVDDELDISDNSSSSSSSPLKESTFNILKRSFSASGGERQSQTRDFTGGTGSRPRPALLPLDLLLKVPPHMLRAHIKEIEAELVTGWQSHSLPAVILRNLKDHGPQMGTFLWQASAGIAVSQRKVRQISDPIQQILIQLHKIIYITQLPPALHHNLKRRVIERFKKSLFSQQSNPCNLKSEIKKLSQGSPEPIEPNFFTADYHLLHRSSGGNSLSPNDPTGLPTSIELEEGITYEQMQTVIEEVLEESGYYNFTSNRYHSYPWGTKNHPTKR", "details": "NEK10; 1 μM; read-out: % control"}, "panel of 468 kinases [2]": {"molecular_target": "T2, panel of 468 kinases (Homo sapiens, UniProt O15197)", "T2 construct": "purchased KINOMEscan (ScanMAX) service", "T2 sequence (O15197 32-1021)": "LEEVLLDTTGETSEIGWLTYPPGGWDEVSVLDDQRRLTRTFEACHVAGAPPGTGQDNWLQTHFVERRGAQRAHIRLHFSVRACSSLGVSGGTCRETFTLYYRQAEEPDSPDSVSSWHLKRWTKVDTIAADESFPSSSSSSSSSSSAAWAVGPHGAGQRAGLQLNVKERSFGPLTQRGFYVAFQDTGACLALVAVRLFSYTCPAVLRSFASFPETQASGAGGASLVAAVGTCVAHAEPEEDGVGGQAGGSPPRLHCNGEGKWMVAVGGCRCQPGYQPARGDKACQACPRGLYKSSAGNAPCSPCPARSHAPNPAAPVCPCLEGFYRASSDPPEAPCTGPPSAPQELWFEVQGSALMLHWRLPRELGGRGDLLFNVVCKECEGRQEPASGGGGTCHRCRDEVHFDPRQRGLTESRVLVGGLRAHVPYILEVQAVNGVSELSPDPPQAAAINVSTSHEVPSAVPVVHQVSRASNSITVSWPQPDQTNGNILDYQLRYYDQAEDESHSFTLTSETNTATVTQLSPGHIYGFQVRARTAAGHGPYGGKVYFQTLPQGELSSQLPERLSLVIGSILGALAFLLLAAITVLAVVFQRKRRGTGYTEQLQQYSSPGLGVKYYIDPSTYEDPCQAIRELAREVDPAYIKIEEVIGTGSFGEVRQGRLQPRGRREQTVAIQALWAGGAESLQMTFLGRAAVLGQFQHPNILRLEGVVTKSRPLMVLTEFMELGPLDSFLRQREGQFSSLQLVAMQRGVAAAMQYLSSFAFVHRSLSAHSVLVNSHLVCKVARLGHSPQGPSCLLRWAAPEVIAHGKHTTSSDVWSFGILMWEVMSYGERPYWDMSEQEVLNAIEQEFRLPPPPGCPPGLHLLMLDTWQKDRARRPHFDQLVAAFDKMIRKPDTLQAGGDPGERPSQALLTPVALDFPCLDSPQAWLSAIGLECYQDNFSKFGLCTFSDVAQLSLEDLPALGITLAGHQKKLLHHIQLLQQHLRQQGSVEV", "details": "EPHB6; 1 μM; read-out: % control"}, "panel of 468 kinases [3]": {"molecular_target": "T3, panel of 468 kinases (Homo sapiens, UniProt P36894)", "T3 construct": "purchased KINOMEscan (ScanMAX) service", "T3 sequence (P36894 24-532)": "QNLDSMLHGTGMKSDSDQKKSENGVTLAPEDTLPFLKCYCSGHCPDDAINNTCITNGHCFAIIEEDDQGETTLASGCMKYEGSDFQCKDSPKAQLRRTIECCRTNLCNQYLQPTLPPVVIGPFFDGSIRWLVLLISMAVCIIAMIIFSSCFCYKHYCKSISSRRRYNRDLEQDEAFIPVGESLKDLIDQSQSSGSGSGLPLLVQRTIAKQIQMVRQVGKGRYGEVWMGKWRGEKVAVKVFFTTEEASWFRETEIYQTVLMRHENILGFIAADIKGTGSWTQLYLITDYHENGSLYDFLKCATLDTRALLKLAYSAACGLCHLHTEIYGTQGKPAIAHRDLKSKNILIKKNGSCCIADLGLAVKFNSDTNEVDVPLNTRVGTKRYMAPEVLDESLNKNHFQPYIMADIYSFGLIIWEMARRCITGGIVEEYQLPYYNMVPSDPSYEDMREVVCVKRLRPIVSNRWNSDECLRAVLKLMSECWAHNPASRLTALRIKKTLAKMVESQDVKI", "details": "BMPR1A; 1 μM; read-out: % control"}, "panel of 468 kinases [4]": {"molecular_target": "T4, panel of 468 kinases (Homo sapiens, UniProt O15264)", "T4 construct": "purchased KINOMEscan (ScanMAX) service", "T4 sequence (O15264 1-365)": "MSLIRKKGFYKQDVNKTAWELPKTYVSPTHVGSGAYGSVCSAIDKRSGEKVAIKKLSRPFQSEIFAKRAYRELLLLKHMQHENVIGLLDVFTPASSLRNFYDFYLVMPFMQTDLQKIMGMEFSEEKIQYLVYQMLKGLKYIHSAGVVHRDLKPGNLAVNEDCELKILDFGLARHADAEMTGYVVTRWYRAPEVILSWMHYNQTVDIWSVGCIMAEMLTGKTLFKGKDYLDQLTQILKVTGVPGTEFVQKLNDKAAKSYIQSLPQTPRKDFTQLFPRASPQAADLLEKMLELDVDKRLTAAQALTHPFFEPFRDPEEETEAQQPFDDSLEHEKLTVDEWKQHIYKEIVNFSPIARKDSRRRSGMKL", "details": "p38-delta; 1 μM; read-out: % control"}}}
{"smiles": "CNc1nc(Nc2ccc(S(=O)(=O)N3CCC(N4CCOCC4)CC3)cc2OC)nc2[nH]cc(Cl)c12", "note": "[Compound 12, 5-chloro-N2-(2-methoxy-4-((4-morpholinopiperidin-1-yl)sulfonyl)phenyl)-N4-methyl-7H-pyrrolo[2,3-d]pyrimidine-2,4-diamine]", "values": [{"measurement": "remaining binding at 1 µM", "setting": "panel of 468 kinases [1]", "result": 63, "unit": "%"}, {"measurement": "remaining binding at 1 µM", "setting": "panel of 468 kinases [2]", "result": 51, "unit": "%"}, {"measurement": "remaining binding at 1 µM", "setting": "panel of 468 kinases [3]", "result": 96, "unit": "%"}, {"measurement": "remaining binding at 1 µM", "setting": "panel of 468 kinases [4]", "result": 100, "unit": "%"}]}
{"smiles": "CNc1nc(Nc2ccc(C(=O)N3CCC(N4CCOCC4)CC3)c3c2OCO3)nc2[nH]cc(Cl)c12", "note": "[Compound 75, (7-((5-chloro-4-(methylamino)-7H-pyrrolo[2,3-d]pyrimidin-2-yl)amino)benzo[d][1,3]dioxol-4-yl)(4-morpholinopiperidin-1-yl)methanone]", "values": [{"measurement": "remaining binding at 1 µM", "setting": "panel of 468 kinases [1]", "result": 66, "unit": "%"}, {"measurement": "remaining binding at 1 µM", "setting": "panel of 468 kinases [2]", "result": 51, "unit": "%"}, {"measurement": "remaining binding at 1 µM", "setting": "panel of 468 kinases [3]", "result": 85, "unit": "%"}, {"measurement": "remaining binding at 1 µM", "setting": "panel of 468 kinases [4]", "result": 100, "unit": "%"}]}
{"smiles": "CNc1nc(Nc2ccc(P3(=O)CCN(C4CCOCC4)CC3)cc2OC)nc2[nH]cc(Cl)c12", "note": "[Compound 77, 4-(4-((5-chloro-4-(methylamino)-7H-pyrrolo[2,3-d]pyrimidin-2-yl)amino)-3-methoxyphenyl)-1-(tetrahydro-2H-pyran-4-yl)-1,4-azaphosphinane 4-oxide]", "values": [{"measurement": "remaining binding at 1 µM", "setting": "panel of 468 kinases [1]", "result": 39, "unit": "%"}, {"measurement": "remaining binding at 1 µM", "setting": "panel of 468 kinases [2]", "result": 49, "unit": "%"}, {"measurement": "remaining binding at 1 µM", "setting": "panel of 468 kinases [3]", "result": 96, "unit": "%"}, {"measurement": "remaining binding at 1 µM", "setting": "panel of 468 kinases [4]", "result": 100, "unit": "%"}]}
